# Measurements as given in ChEMBL document CHEMBL6115018, “MrgX2-Targeting Ligand Screen for Antipseudoallergic Agents by Immobilized His-Tag-Fused Protein Technology” (J Med Chem, 2025).
# Activity calls are given as the source filed them. The calls are words filed in the database; no cut-off is given here.
# Legend:
# LAD2 [1] = test: Anti-pseudoallergic activity in human LAD2 cells assessed as inhibition of SP-induced histamine release preincubated for 30 mins followed by SP addition and measured after 30 mins by UHPLC-ESI-MS/MS analysis; type: functional, cell-based; details: dose 1-10 µM, time 60.0 min
# [2] = Cytotoxicity against human LAD2 cells assessed as cell viability incubated for 24 hrs by CCK8 assay relative to control; type: toxicity, cell-based; details: read-out: Activity
# LAD2 [3] = test: Anti-pseudoallergic activity in human LAD2 cells assessed as inhibition of SP-induced beta-aminohexosidase release at 50 uM preincubated for 30 mins followed by SP addition and measured after 30 mins by absorbance based microplate reader analysis relative to control; type: functional; details: LAD2, 1 h, time 60 min
# LAD2 [4] = test: Anti-pseudoallergic activity in human LAD2 cells assessed as inhibition of SP-induced beta-aminohexosidase release preincubated for 30 mins followed by SP addition and measured after 30 mins by absorbance based microplate reader analysis; type: functional, cell-based
# LAD2 [5] = test: Anti-pseudoallergic activity in human LAD2 cells assessed as inhibition of C48/80-induced beta-aminohexosidase release preincubated for 30 mins followed by SP addition and measured after 30 mins by absorbance based microplate reader analysis; type: functional, cell-based
# LAD2 [6] = test: Anti-pseudoallergic activity in human LAD2 cells assessed as inhibition of SP-induced TNF-alpha release incubated for 6 hrs by ELISA analysis; type: functional, cell-based; details: dose 1-10 µM
# Mus musculus [7] = test: Anti-pseudoallergic activity in C48/80-induced male C57BL/6 mouse model assessed as reduction in paw thickness at 0.5 to 1.0 mg/mL administered via gavage for 2 hrs by vernier caliper based analysis; type: functional, organism-based; details: dose 0.5-1 mg/ml
# Mus musculus [8] = test: Anti-pseudoallergic activity in C48/80-induced male C57BL/6 mouse model assessed as reduction in evans blue extravasation at 1.0 mg/mL administered via gavage for 2 hrs by absorbance based assay; type: functional, organism-based
# Mus musculus [9] = test: Anti-pseudoallergic activity in C48/80-induced male C57BL/6 mouse model assessed as reduction in mast cell degranulation at 1 mg/mL administered via gavage for 2 hrs by Toluidine blue staining based analysis; type: functional, organism-based
# Mus musculus [10] = test: Anti-pseudoallergic activity in C48/80-induced male C57BL/6 mouse model assessed as reduction in serum histamine release at 1 to 10 mg/kg, preadministered with compound via gavage for 2 hrs followed by C48/80 administration and measured after 1 hrs by UHPLC-ESI-MS/MS analysis; type: functional, organism-based; details: dose 1-10 mg/kg, time 3.0 hrs
# [11] = molecular target: T1, Mas-related G-protein coupled receptor member X2 (Homo sapiens) (UniProt Q96LB1); test: Competitive binding affinity to MrgX2 (unknown origin) assessed as retention time of compound at 2 x 10^-8mol/L by zonal elution method (reference value: 58.73 min); details: dose 2.0 10^-8mol/L
# T1 sequence (whole entry): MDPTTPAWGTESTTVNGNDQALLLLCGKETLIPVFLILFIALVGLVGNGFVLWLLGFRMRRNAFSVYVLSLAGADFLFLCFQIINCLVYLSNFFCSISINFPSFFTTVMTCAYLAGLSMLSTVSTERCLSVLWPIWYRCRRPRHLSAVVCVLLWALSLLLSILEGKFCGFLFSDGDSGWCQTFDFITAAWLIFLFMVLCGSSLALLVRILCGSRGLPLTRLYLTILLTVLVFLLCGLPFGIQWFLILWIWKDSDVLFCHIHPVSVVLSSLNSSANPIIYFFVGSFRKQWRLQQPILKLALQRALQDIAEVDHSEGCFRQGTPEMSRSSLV
# [12] = molecular target: T1, Mas-related G-protein coupled receptor member X2 (Homo sapiens); test: Competitive binding affinity to MrgX2 (unknown origin) assessed as retention time of compound at 4 x 10^-8mol/L by zonal elution method (reference value: 58.73 min); details: dose 4.0 10^-8mol/L
# [13] = molecular target: T1, Mas-related G-protein coupled receptor member X2 (Homo sapiens); test: Competitive binding affinity to MrgX2 (unknown origin) assessed as retention time of compound at 8 x 10^-8mol/L by zonal elution method (reference value: 58.73 min); details: dose 8.0 10^-8mol/L
# [14] = molecular target: T1, Mas-related G-protein coupled receptor member X2 (Homo sapiens); test: Competitive binding affinity to MrgX2 (unknown origin) assessed as retention time of compound at 1 x 10^-7mol/L by zonal elution method (reference value: 58.73 min); details: dose 1.0 10^-7mol/L
IC50 (LAD2 [4]) [µM],IC50 (LAD2 [5]) [µM],Retention time [11] [min],Retention time [12] [min],Retention time [13] [min],Retention time [14] [min],SMILES,Activity (LAD2 [1]),viability at 24 h [2] [%],inhibition at 50 µM (LAD2 [3]) [%],Activity (LAD2 [4]; time 60.0 min),Activity (LAD2 [5]; time 60.0 min),Activity (LAD2 [6]),Activity (Mus musculus [7]),Activity (Mus musculus [8]),Activity (Mus musculus [9]),Activity (Mus musculus [10])
4.9,6.18,,,,,O=C(CSc1nnc(-c2ccccc2)c(-c2ccccc2)n1)Nc1ccc(Cl)cc1Cl,Dose-dependent-effect,> 85,75,Dose-dependent-effect,Dose-dependent-effect,Dose-dependent-effect,Active,Active,Active,Active
,,56.1,46.3,29.2,23.7,CN(C)[C@@H]1CCN(c2cc(-c3ccccc3)nc3ccnn23)C1,,,,,,,,,,
